Assay results taken from US20250281497A1, “FUSED AMINO PYRIMIDINE COMPOUNDS FOR TREATMENT OF SEIZURE DISORDERS” (Ovid Therapeutics Inc., priority 2024, published 2025).

Key:
KA induced SE [1] = assay: Kainic acid (KA) induced SE, EEG recording, pretreatment; format: in vivo, mice; conditions: mice pretreated with vehicle; DZ 10 mg/kg IP 2h after KA; pre 4.2±2.4×10^−6
Excerpt: This model was chosen due to the similarities with patients undergoing SE, as KA-induced seizures become refractory to benzodiazepines (BDZs) within minutes (Betjemann and Lowenstein, Lancet Neurol 14, 615-624 (2015); Crawshaw and Cock, (2020a) [Seizure: Eur. J. Epilep. 75 (2020) 145-152] Seizure 80, 282; Lee et at, 2022, supra; Reddy and Kuruba, Int J Mol Sci 14, 18284-18318 (2013)).
(§1) EEG recordings and analysis. WT C57Bl/6J adult male mice (12 weeks) were anesthetized with isofluorane and implanted with EEG/EMG electrodes and allowed to recover for 7 days prior to experimentation. […] 2h following KA administration mice were injected with a saturating concentration of diazepam (DZ) 10 mg/kg (IP) and recordings were extended for a further 60 min. […] LabChart 8 software was used for data analysis. Epileptiform activity was identified by changes in the amplitude of electrographic activity characterized by consistent changes in the power of the Fast Fourier transform (FFT) of the EEG and abnormal activity characterized by periods of rhythmic spiking lasting longer than 30s (Moore et al., 2017, supra; Silayeva et al., 2015, supra; Sivakumaran et al., J. Neurosci. 35, 8291-8296 (2015)).
To provide quantitative insights on the effects of KA, raw EEG recordings were subject to Fast-Fourier transformation (8K FFT size, Hann (cosine-bell), 87.50% window overlap) for frequencies between 0-100 Hz 2h after KA injection (Lee et at, 2022, supra).
30 or 60 min later mice were injected with KA (20 mg/kg) and 2h later with DZ as detailed above.

KA induced SE [2] = assay: KA induced ongoing SE, EEG recording, treatment 2h after KA; format: in vivo, mice
Method: as §1
To evaluate the potential of KCC2 activators to terminate ongoing SE, the KA model described above was employed. Mice were injected with KA (20 mg/Kg; IP). […] Spectral data were then subjected to FFT and the total EEG power between 1-100 Hz of the 2h following KA treatment (pre-drug) and 30 min following their injection (post-drug) were compared (FIG. 6B). In mice treated with DZ alone variable effects were observed, from large increases to modest reductions in EEG power, but these effects were not significant (FIG. 6C; pre=1.1±0.2×10^−6, post=4.4±7.4×10^−7 μV^2, p=0.214, n=13-14 mice). […] The latency of the treatments to modify EEG power was examined by measuring the time taken for this parameter to be reduced to 50% (FIG. 6E). […] Finally in mice treated with DZ alone 62% were insensitive to the effects of this agent on EEG power.

Q: Which results are given for `CN1C(=O)CN=C(c2ccccc2)c2cc(Cl)ccc21` [DZ, diazepam]?
A: total EEG power post DZ (KA induced SE [1]): 2.9±2.7×10^−6 μV^2; total EEG power post-drug (KA induced SE [2]; 30 min after injection, given 2h after KA, DZ 10 mg/kg, Compound A 50 mg/Kg IP): 4.4±7.4×10^−7 μV^2; mice insensitive to DZ effects on EEG power (KA induced SE [2]; treatment 2h after KA): 62%
